From EPA's ToxValDB 9.5 (doi:10.2903/j.efsa.2017.4852) come the findings set out here.

One series deals with Oryctolagus sp. Conditions: developmental; development.
The test system of the next series is Folsomia candida. Conditions: chronic/long-term; reproduction.
The next series concerns Mus musculus. Conditions: acute; oral; mortality.
Another series concerns Apis mellifera. Conditions: acute, mortality.
The subject of a further series is Anas platyrhynchos. Conditions: acute; oral; unspecified; mortality.
The test system of the next series is Tagia sp. As to conditions: chronic/long-term; reproduction.
Another series concerns Bibionidae. As to conditions: chronic/long-term; duration: 28 days.
For another series, the system named is Chrysoperla externa. As to the kind of experiment: LR50; higher = less toxic. As to conditions: not reported; mortality.

Consider `CC#Cc1cc(C)nc(Nc2ccccc2)n1` [Mepanipyrim], for which the LD50 in the series on Rattus norvegicus (acute, oral, mortality) was above 2650 mg/kg-day; in the series with Mus musculus, above 2650 mg/kg-day; in the series with Apis mellifera (dermal) it was above 80 µg/piece; in the series on Apis mellifera (oral, unspecified), above 50 µg/piece; with Anas platyrhynchos, above 2250 mg/kg-day; in the series with Colinus virginianus (acute, oral, mortality), above 2250 mg/kg-day. Also, the LOAEL in the series on Rattus norvegicus (chronic, morphology) stood at 2.45 mg/kg-day; in the series with Rattus norvegicus (reproduction developmental, histopathology: nonneoplastic), 2.45 mg/kg-day. In the series on Oryctolagus sp., this compound yielded an NOAEL of 10 mg/kg-day. For the same compound, the NOEC was 58.4 mg/kg with Folsomia candida; 113 mg/kg in the series on Tagia sp.; 4.67 mg/kg with Bibionidae; 100 mg/kg-day with Colinus virginianus (reproduction developmental, reproduction). In the series with Chrysoperla externa, this compound returned an LR50 above 500 g/ha.

In general, LOAEL refers to the lowest tested level that showed an adverse finding. In general, NOAEL refers to the highest dose or exposure tested at which no adverse effect was seen.
